Results published in US20120004244A1, “Bis Aromatic Compounds for Use as LTC4 Synthase Inhibitors” (BIOLIPOX AB, priority 2009, published 2012).

Biological target: T1, Recombinant human LTC4 synthase (Homo sapiens, UniProt Q16873)
T1 construct: made in house; host or cells: Pichia pastoris ('Piccia pastoralis' [sic])
T1 sequence (Q16873 1-150): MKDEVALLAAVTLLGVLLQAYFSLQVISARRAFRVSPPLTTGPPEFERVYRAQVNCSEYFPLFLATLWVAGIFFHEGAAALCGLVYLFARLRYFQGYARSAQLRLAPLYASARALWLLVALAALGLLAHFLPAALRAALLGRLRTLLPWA
Experiment: LTC4 synthase in vitro assay (LTA4 to LTC4, HTRF detection)
Assay type: biochemical
How it was run: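 Purified recombinant human LTC4 synthase expressed in Pichia (0.5 μg/mL total protein) was preincubated with inhibitor at 10 μM final for 10 min at room temperature in PBS pH 7.4 with 5 mM GSH. LTA4 was then added at 2.5 μM final, and after 5 min at room temperature LTC4 was detected by HTRF.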

Compound | IC50 [nM]
CN(c1ccc(Cl)cc1)c1ccc(C(=O)c2ccc(-c3ccccc3OCC3CC3)c(C(=O)O)c2)nc1 [21:5, 4-{5-[(4-Chlorophenyl)(methyl)amino]picolinoyl}-2′-(cyclopropylmethoxy)-biphenyl-2-carboxylic acid] | 384
CN(c1ccc(Cl)cc1)c1ccc(C(=O)c2ccc(-c3cc(Cl)ccc3Cl)c(C(=O)O)c2)nc1 [21:7, 2′,5′-Dichloro-4-{5-[(4-chlorophenyl)(methyl)amino]picolinoyl}biphenyl-2-carboxylic acid] | 269
CN(c1ccc(Cl)cc1)c1ccc(C(=O)c2ccc(-c3cccc(-c4ccccc4)c3)c(C(=O)O)c2)nc1 [21:9, 4-{5-[(4-Chlorophenyl)(methyl)amino]picolinoyl}[1,1′;2′,1″]terphenyl-2-carboxylic acid[1,1′;3′,1″]terphenyl-2-carboxylic acid] | 511

Stronger by IC50, values ahead:

IC50 [nM] | Compound
244 | CN(c1ccc(Cl)cc1)c1ccc(C(=O)c2ccc(-c3ccccc3-c3ccccc3)c(C(=O)O)c2)nc1 [21:8, 4-{5-[(4-Chlorophenyl)(methyl)amino]picolinoyl}[1,1′;2′,1″]terphenyl-2-carboxylic acid]
217 | CN(c1ccc(Cl)cc1)c1ccc(C(=O)c2ccc(-c3ccccc3OC(F)(F)F)c(C(=O)O)c2)nc1 [21:6, 4-{5-[(4-chlorophenyl)(methyl)amino]picolinoyl}-2′-trifluoromethoxy-biphenyl-2-carboxylic acid]
